Assay results reported in US8664201B2 (priority 2008, dated 2014).
Values joined by “and” are separate entries in the source; they are usually repeats but may differ in a detail not shown here. Equal entries are not always repeated. Where two headings read alike, the source gives them in different places. Marks after values point to notes of the source that are not given here.

Tests used:
[1] = system: human lox-IMVI melanoma; assay type: in vivo, mice
[2] = system: 16/C Mammary Tumor; assay type: in vivo, mice
[3] = system: B16 Melanoma; set-up: species or system mice; conditions: mouse, in vivo
[4] = system: human MX-1 mammary tumors; assay type: in vivo, mice
[5] = system: P388/0; assay type: in vivo, mice
[6] = system: L1210/CPA; assay type: in vivo, mice
[7] = system: P388/CPA; assay type: in vivo, mice
[8] = system: Lewis Lung Carcinoma; set-up: species or system mice; conditions: mouse, in vivo
[9] = system: L1210/0; assay type: in vivo, mice
[10] = Single dose intravenous toxicity of IPM in rats; assay type: in vivo
[11] = Single dose intravenous toxicity of IPM in mice; assay type: in vivo
[12] = system: MX-1 Human Breast Tumor; conditions: mouse, in vivo, ip
[13] = Acute toxicity, three daily IV bolus injections in mice (IPM lysine salt, IPM parent control); assay type: in vivo; conditions: 150 mg/kg IV daily × 3
Experimental: This example describes the evaluation of the acute toxicity of isophosphoramide mustard lysine salt, following three days of daily intravenous (bolus) injection in mice. This study consisted of two phases.
The second main study phase consisted of eight treatment groups (five mice/sex/group) that received the test article as a single daily dose for three consecutive days at respective dose levels of 50, 75, 100, 200, 300, 400, 500, and 600 mg/kg. An additional group (5 mice/sex) served as a parent compound control and received the isophosphoramide mustard parent compound in the same manner, at a dose level of 150 mg/kg. The vehicle was 0.9% sodium chloride for injection, USP and all doses were at a constant volume of 15 mL/kg.
Observations for mortality, morbidity, and the availability of food and water were conducted twice daily for all animals. Observations for clinical signs were conducted daily during the study (approximately one and four hours postdose on Days 1, 2, and 3, and once daily on non-dosing days). Body weights for all surviving animals were measured and recorded the second day after receipt, prior to randomization, and on Days-1 and 7. Body weights also were measured on all surviving main study phase animals on Day 14. Macroscopic evaluations were performed on each main study animal at necropsy (Day 15).
Eight main study treatment groups received the test article as a single daily dose for three consecutive days via intravenous (bolus) injection at respective dose levels of 50, 75, 100, 200, 300, 400, 500, and 600 mg/kg. An additional group (five mice/sex) served as a parent compound control and received the Isophosphoramide Mustard Parent Compound in the same manner at a dose level of 150 mg/kg. All doses were at a volume of 15 mL/kg and based on the most recent body weight.

[14] = Sub-acute IV (3-day) toxicity of IPM in mice; assay type: in vivo; conditions: for dose with kidney tubular necrosis / dose with severe bone marrow depletion / intravenous LD10 / intravenous LD50: IV daily × 3 days
Description: Multiple daily dose Administrations—IV and IP—have been studied in mice and dogs. Sub-acute intravenous (3-day) dosing in the mouse and dog has provided the toxicology/pharmacokinetic information regarding toxicities and drug disturbances that were utilized in designing the administration and dose schedules in humans.

[15] = system: M5076 Sarcoma; experiment: SC implanted M5076 sarcoma; assay type: in vivo, mice; conditions: days 11-15
[16] = system: Lewis lung murine tumor; conditions: mouse, in vivo, ip
[17] = Single dose oral toxicity of IPM in mice; assay type: in vivo
[18] = Estimated comparable human intravenous dosages
[19] = Single dose oral toxicity of IPM in rats; assay type: in vivo; conditions: for oral LD50: single dose

SMILES: O=P1(N(CCCl)CCCl)NCCCO1 (stereo not shown) [Cyclophosphamide, cyclophosphamide]
- % ILS ([1]; 40 mg/kg/dose IV, Q1DX5): +121%
- Median Day of Death ([1]; 40 mg/kg/dose IV, Q1DX5): 42.0
- Days Delay (T-C) ([2]; 30 mg/kg IP, Q 1dx 4 day 7): 0.4 days
- Days to 2 Doublings ([2]; 30 mg/kg IP, Q 1dx 4 day 7): 3.6 days
- Days Delay (T-C) ([2]; 40 mg/kg IP, Q 1dx 4 day 7): 1.2 days
- Days to 2 Doublings ([2]; 40 mg/kg IP, Q 1dx 4 day 7): 4.4 days
- Days Delay (T-C) ([2]; 50 mg/kg IP, Q 1dx 4 day 7): 4.0 days
- Days to 2 Doublings ([2]; 50 mg/kg IP, Q 1dx 4 day 7): 7.2 days
- Days Delay (T-C) ([2]; 60 mg/kg IP, Q 1dx 4 day 7): 4.5 days
- Days to 2 Doublings ([2]; 60 mg/kg IP, Q 1dx 4 day 7): 7.7 days
- % ILS [3]: 68%
- T-C [3]: 27 days
- Tumor-free survivors [3]: 5/10
- Days Delay (T-C) ([4]; 60 mg/kg IP, Q 1dx 5 day 12): >40.5 days
- Days to 2 Doublings ([4]; 60 mg/kg IP, Q 1dx 5 day 12): >48.0 days
- % ILS (dying mice only) ([5]; 175 mg/kg IP, day 1 only): +130%
- Day 60 survivors/total ([5]; 175 mg/kg IP, day 1 only): 4/10
- Net log10 reduction in tumor burden after therapy ([5]; 175 mg/kg IP, day 1 only): 7
- % ILS (dying mice only) ([5]; 265 mg/kg IP, day 1 only): +280%
- Day 60 survivors/total ([5]; 265 mg/kg IP, day 1 only): 7/10
- Net log10 reduction in tumor burden after therapy ([5]; 265 mg/kg IP, day 1 only): 7
- % ILS (dying mice only) ([6]; 200 mg/kg IP, day 2 only): +57%
- Day 60 survivors/total ([6]; 200 mg/kg IP, day 2 only): 0/10
- Net log10 reduction in tumor burden after therapy ([6]; 200 mg/kg IP, day 2 only): 4
- % ILS (dying mice only) ([7]; 175 mg/kg IP, day 1 only): +35%
- Day 60 survivors/total ([7]; 175 mg/kg IP, day 1 only): 0/10
- Net log10 reduction in tumor burden after therapy ([7]; 175 mg/kg IP, day 1 only): 3
- % ILS (dying mice only) ([7]; 265 mg/kg IP, day 1 only): +35%
- Day 60 survivors/total ([7]; 265 mg/kg IP, day 1 only): 0/10
- Net log10 reduction in tumor burden after therapy ([7]; 265 mg/kg IP, day 1 only): 3
- % ILS [8]: 68%
- Log kill total [8]: >6.8
- T-C (tumor growth delay) [8]: 27 days
- Tumor-free survivors [8]: 5/10
- % ILS (dying mice only) ([9]; 200 mg/kg IP, day 2 only): +107%
- Day 60 survivors/total ([9]; 200 mg/kg IP, day 2 only): 0/10
- Net log10 reduction in tumor burden after therapy ([9]; 200 mg/kg IP, day 2 only): 7

SMILES: O=P(O)(NCCCl)NCCCl [IPM, isophosphoramide mustard]
- single dose intravenous LD50 ([10]; female rats): 400 mg/kg
- single dose intravenous LD50 ([10]; male rats): 567 mg/kg
- Sub-acute IV LD10 (Dog): 5 mg/kg/day
- survival (dog, in vivo): (100% survival)
- MTD (dog, in vivo, iv): 5 mg/kg/day
- % ILS ([1]; mouse, in vivo): +52%
- Median Day of Death ([1]; mouse, in vivo): 29.0
- single dose intravenous LD50 ([11]; female mice): 484 mg/kg
- single dose intravenous LD50 ([11]; male mice): 929 mg/kg
- Days Delay (T-C) ([2]; mouse, in vivo): 6.3 days and 5.2 days and 4.2 days
- Days to 2 Doublings ([2]; mouse, in vivo): 9.5 days and 8.5 days and 7.4 days
- MTD Dosage [12]: 40.0 mg/kg/dose
- T-C [12]: 2.1* days
- Cumulative Mortality, female [13]: 4/5
- Cumulative Mortality, male [13]: 1/5
- Cumulative Mortality, total ([13]; listed as IPM parent compound): 5 of 10 and 5/10
- treatment-related microscopic findings ([14]; 75 mg/kg, either sex): No obvious treatment-related microscopic findings
- Sub-acute IV LD10 ([14]; Mouse): 119 mg/kg/day
- dose with kidney tubular necrosis ([14]; female mice): ≥ 133 mg/kg
- dose with severe bone marrow depletion ([14]; female mice): ≥ 133 mg/kg
- intravenous LD10 ([14]; female mice): 125 mg/kg
- intravenous LD50 ([14]; female mice): 132 mg/kg
- dose with kidney tubular necrosis ([14]; male mice): ≥ 237 mg/kg
- dose with severe bone marrow depletion ([14]; male mice): ≥ 178 mg/kg
- intravenous LD10 ([14]; male mice): 168 mg/kg
- intravenous LD50 ([14]; male mice): 176 mg/kg
- intravenous LD10 ([14]; mice, combined sexes): 119 mg/kg
- Days Delay (T-C) ([15]; 18 mg/kg IP daily): 1 days
- Days To 2 doublings ([15]; 18 mg/kg IP daily): 10.3 days
- Days Delay (T-C) ([15]; 27 mg/kg IP daily): 3.3 days
- Days To 2 doublings ([15]; 27 mg/kg IP daily): 12.6 days
- Days Delay (T-C) ([15]; 40 mg/kg IP daily): 6.1 days
- Days To 2 doublings ([15]; 40 mg/kg IP daily): 15.4 days
- % ILS [3]: 34%
- Inhibition of B16 melanoma growth compared with CPA and Ifos [3]: slightly inferior to CPA but better than Ifos
- T-C [3]: 8.4 days
- Tumor-free survivors [3]: 6/10
- Days to 2 Doublings ([4]; mouse, in vivo): 26.5 days and 14.2 days
- Day 60 survivors/total ([5]; mouse, in vivo): 0/9 and 1/10
- % ILS (dying mice only) ([6]; mouse, in vivo): +114%
- Day 60 survivors/total ([6]; mouse, in vivo): 1/10
- Net log10 reduction in tumor burden after therapy ([6]; mouse, in vivo): 7
- Day 60 survivors/total ([7]; mouse, in vivo): 0/10
- Net log10 reduction in tumor burden after therapy ([7]; mouse, in vivo): 7
- MTD Dosage [16]: 40.0 mg/kg/dose
- T-C [16]: 12.5* days
- oral LD50 ([17]; female mice): 1962 mg/kg
- oral LD50 ([17]; male mice): 1014 mg/kg
- oral LD50 ([17]; mice, both sexes combined): 1432 mg/kg
- Comparable Human IV Dosage ([18]; estimated from dog sub-acute IV value): 100 mg/m^2/d
- Comparable Human IV Dosage ([18]; estimated from mouse sub-acute IV LD10): 30 mg/m^2/d
- corresponding safe starting dose in humans ([18]; for three days, from dog MTD): 100 mg/m^2 per day
- % ILS [8]: 34%
- Log kill total [8]: >2.1
- T-C (tumor growth delay) [8]: 8.4 days
- Tumor-free survivors [8]: 6/10
- oral LD50 ([19]; female rats): 2786 mg/kg
- oral LD50 ([19]; male rats): 4443 mg/kg
- oral LD50 range ([19]; oral, range over mice and rats): 1400 to 3500 mg/kg
- oral LD50 ([19]; rats, both sexes combined): 3560 mg/kg
- % ILS (dying mice only) ([9]; mouse, in vivo): +128%
- Day 60 survivors/total ([9]; mouse, in vivo): 0/10
- Net log10 reduction in tumor burden after therapy ([9]; mouse, in vivo): 8

SMILES: O=P1(NCCCl)OCCCN1CCCl (stereo not shown) [Ifosfamide, ifosfamide]
- Days to 2 Doublings ([2]; mouse, in vivo): 4.6 days and 4.9 days and 3.8 days and 4.0 days
- % ILS [3]: 55%
- T-C [3]: 18 days
- Tumor-free survivors [3]: 7/10
- Day 60 survivors/total ([5]; mouse, in vivo): 7/10
- Net log10 reduction in tumor burden after therapy ([5]; mouse, in vivo): 7
- Day 60 survivors/total ([6]; mouse, in vivo): 0/10
- Day 60 survivors/total ([7]; mouse, in vivo): 0/10
- Net log10 reduction in tumor burden after therapy ([7]; mouse, in vivo): 4
- % ILS [8]: 55%
- Log kill total [8]: >4.5
- T-C (tumor growth delay) [8]: 18 days
- Tumor-free survivors [8]: 7/10
- Day 60 survivors/total ([9]; mouse, in vivo): 0/10 and 0/9
- Net log10 reduction in tumor burden after therapy ([9]; mouse, in vivo): 8
